Laboratory results taken from patent US11478466B2, “Small molecule promoting osteoblast differentiation” (Cornell University, priority 2019, dated 2022).

How the values were obtained:
[1] = tested on: alkaline phosphatase (ALP); assay: ALP expression staining in C2C12 cells; assay type: cell-based, mouse; details: for ALP expression by staining: C2C12, 2 days, 10 μM
Experimental: C2C12 cells were treated for 2 days with 10 μM DIPQUO or structural analogs, 1 ng/ml rhBMP4, or with inhibitors as noted in figure legends, and then fixed briefly in 70% acetone/10% formaldehyde/20% citrate. Staining was achieved using the leukocyte alkaline phosphatase kit (Sigma 86R-1KT) according to the manufacturer's instructions. Expression of ALP was confirmed and quantified by flow cytometric analysis, using an Accuri C6 flow cytometer. Briefly, control- or DIPQUO-treated C2C12 cells were detached and harvested on day 2 using PBS-based enzyme-free cell detachment solution (ThermoFisher). 2×10^5 cells were incubated on ice for 30 minutes with 10 μl APC-conjugated ALPL antibody (R&D Systems), and washed in ice-cold PBS before analysis. Live cells were gated and analyzed in CFlow Plus software and then data was converted to FlowJo to achieve publication-level resolution. For siRNA experiments, gene-specific oligonucleotides were obtained for mouse p38-alpha (Cell Signaling) and p38-beta (Santa Cruz). Signal Silence scramble siRNA control oligonucleotide was purchased from Cell Signaling. C2C12 cells at 70% confluency were transfected in 12-well plates using Lipofectamine RNAiMax reagent (Invitrogen) according to manufacturer's instructions. Transfected cells were treated 24 hours later with DMSO or 10 μM DIPQUO, and siRNA transfection was repeated after 48 hours without changing culture media. After an additional 3 days, cells were either fixed and stained for ALP expression or analyzed for ALP activity using the AttoPhos Substrate kit. Hemagglutinin and FLAG epitope-tagged MKK3 (pMT2-HA-MKK3) and MKK6 (pcDNA3-FLAG-MKK6) constructs were obtained from Addgene and transfected into C2C12 cells using Lipofectamine LTX with Plus Reagent (ThermoFisher) according to manufacturer's instructions and cell extracts analyzed for protein expression and activity as described below.

[2] = tested on: alkaline phosphatase (ALP); details: for RFU Score (10 μM): 154-analog library, C2C12, duplicate
[3] = tested on: alkaline phosphatase (ALP); assay: cells; details: Mus musculus; for activation at 10 µM: C2C12, 96 h

Row | SMILES | RFU Score (10 μM) [2] | activation at 10 µM [3] [%] | other results
1 | COC(=O)c1cc2cc(Cl)ccc2[nH]c1=O [BT344] | – | – | ALP expression by staining [1]: inert; Fluo. Z Score ([2]; SAR of library and proprietary analogs, AttoPhos assay, C2C12): 0.61 ± 0.47; EC50 ([3]; C2C12): 920 nM
2 | O=C(O)c1cc2cc(Cl)ccc2[nH]c1=O [BT345] | – | – | ALP expression by staining [1]: inert
3 | c1ccc2c(-c3cnn4cc(-c5ccc(N6CCNCC6)cc5)cnc34)ccnc2c1 [LDN193189, reference compound] | – | – | effect of inhibitor on BMP-driven ALP expression (staining) ([1]; C2C12, co-treatment with BMP): attenuated BMP activation of ALP expression
4 | CO[C@H]1CC[C@@]2(OC)CCN(C(=O)c3[nH]cnc3-c3ccccc3)[C@H]2C1 [RU-0424522] | 458 | 6.21 | –
5 | O=C(c1[nH]cnc1-c1ccccc1)N1CCC(Oc2ccccc2)C1 (centres unmarked) [RU-0424523] | 419 | 4.84 | –
6 | O=C(c1[nH]cnc1-c1ccccc1)N(Cc1cocn1)Cc1cocn1 [RU-0424524] | 549 | 9.42 | –
7 | Cc1cc(C)c2[nH]c(=O)c(CN3CCN(Cc4noc(C)n4)CC3)cc2c1 [RU-0424525] | 563 | 9.94 | –
8 | CCn1nc(C(=O)O)c2c1CCN(C(=O)c1[nH]cnc1-c1ccccc1)C2 [RU-0424526] | 545 | 9.28 | –
9 | CN(C)C1=NC2(CCN(C(=O)c3[nH]cnc3-c3ccccc3)CC2)C(=O)N1 [RU-0424527] | 575 | 10.5 | –
10 | CO[C@@]12CC[C@H](O)C[C@@H]1N(Cc1cc3cc(C)cc(C)c3[nH]c1=O)CC2 [RU-0424528] | 538 | 9.03 | –
11 | CN(CC1COCCO1)C(=O)c1ccc(-c2[nH]cnc2-c2ccccc2)cc1 (centres unmarked) [RU-0424529] | 504 | 7.85 | –
12 | Cc1cc(C)c2[nH]c(=O)c(CN3CCCC[C@H](N(C)C)C3)cc2c1 [RU-0424530] | 524 | 8.55 | –
13 | O=C(c1[nH]cnc1-c1ccccc1)N1CCOC(c2ccc(F)cc2)C1 (centres unmarked) [RU-0424531] | 478 | 6.93 | –
14 | Cc1cc(C)c2[nH]c(=O)c(CN(C)Cc3ncccc3C)cc2c1 [RU-0424532] | 627 | 12.2 | –
15 | O=C(NCc1nnc2ccccn12)c1[nH]cnc1-c1ccccc1 [RU-0424533] | 607 | 11.5 | –
16 | CC(C)CN(C)[C@H]1CN(C(=O)c2[nH]cnc2-c2ccccc2)C[C@@H]1O [RU-0424534] | 638 | 12.6 | –
17 | Cc1cc(C)c2[nH]c(=O)c(CN3C[C@H]4C(=O)NC[C@@]4(C(=O)O)C3)cc2c1 [RU-0424535] | 518 | 8.32 | –
18 | Cc1cc(C)c2[nH]c(=O)c(CN3CCCC(c4ncc[nH]4)C3)cc2c1 (centres unmarked) [RU-0424536] | 516 | 8.27 | –
19 | CNC(=O)[C@@H]1C[C@@H](N)CN1Cc1cc2cc(C)cc(C)c2[nH]c1=O [RU-0424537] | 513 | 8.16 | –
20 | O=S(=O)(Nc1ncc(-c2[nH]cnc2-c2ccccc2)cn1)c1ccccc1 [RU-0424538] | 533 | 8.87 | –
21 | Cc1cc(C)c2[nH]c(=O)c(-c3nccn3CCCN(C)C)cc2c1 [RU-0424539] | 565 | 10 | –

Row | SMILES | RFU Score (10 μM) [2] | activation at 10 µM [3] [%] | other results
22 | c1ccc(-c2nc[nH]c2-c2cnc(N3CCOCC3)s2)cc1 [RU-0424540] | 603 | 11.4 | –
23 | Cc1cc(C)c2[nH]c(=O)c(C3CC(=O)Nc4[nH]nc(C(=O)O)c43)cc2c1 (centres unmarked) [RU-0424541] | 646 | 12.9 | –
24 | CO[C@@]12CC[C@@H](O)C[C@@H]1N(Cc1cc3cc(C)cc(C)c3[nH]c1=O)CC2 [RU-0424542] | 641 | 12.7 | –
25 | Cc1cc(C)c2[nH]c(=O)c(-c3nccn3C(C)Cn3nc(C)cc3C)cc2c1 (centres unmarked) [RU-0424543] | 363 | 2.86 | –
26 | c1ccc(-c2nc(-c3[nH]cnc3-c3ccccc3)cs2)cc1 [RU-0424544] | 450 | 5.93 | –
27 | COc1cccc(-c2[nH]cnc2-c2ccccc2)c1OCCCN(C)C [RU-0424545] | 433 | 5.33 | –
28 | Cc1cc(C)c2[nH]c(=O)c(CN3CCCn4cncc4C3)cc2c1 [RU-0424546] | 460 | 6.3 | –
29 | Cc1c(-c2[nH]cnc2-c2ccccc2)c2ccccc2n1CC(N)=O [RU-0424547] | 518 | 8.34 | –
30 | O=C(NC1CC(=O)N(Cc2ccc(F)cc2)C1)c1[nH]cnc1-c1ccccc1 (centres unmarked) [RU-0424548] | 467 | 6.54 | –
31 | Cc1cc(C)c2[nH]c(=O)c(-c3ncc[nH]3)cc2c1 [RU-0424549] | 445 | 5.75 | –
32 | Cc1cc(C)c2[nH]c(=O)c(CN3CCN(C)[C@@H]4CS(=O)(=O)C[C@@H]43)cc2c1 [RU-0424550] | 304 | 0.78 | –
33 | O=C(c1[nH]cnc1-c1ccccc1)N1CCCC(c2ccn[nH]2)C1 (centres unmarked) [RU-0424551] | 452 | 6 | –
34 | O=C(NCCc1nnc2n1CCNCC2)c1[nH]cnc1-c1ccccc1 [RU-0424552] | 485 | 7.18 | –
35 | Cc1cc(C)c2[nH]c(=O)c(CN3CCC(NS(C)(=O)=O)CC3)cc2c1 [RU-0424553] | 454 | 6.08 | –
36 | CCN(C)Cc1cc2n(n1)CCN(C(=O)c1[nH]cnc1-c1ccccc1)C2 [RU-0424554] | 409 | 4.5 | –
37 | O=C(O)CCc1cc2n(n1)CCN(C(=O)c1[nH]cnc1-c1ccccc1)C2 [RU-0424555] | 443 | 5.68 | –
38 | NS(=O)(=O)CC1CCN(C(=O)c2[nH]cnc2-c2ccccc2)C1 (centres unmarked) [RU-0424556] | 435 | 5.4 | –
39 | COc1cc2c(cc1O)NC(=O)CC2c1cc2cc(C)cc(C)c2[nH]c1=O (centres unmarked) [RU-0424557] | 430 | 5.24 | –
40 | COC(=O)[C@H]1C[C@@H](O)CCN1Cc1cc2cc(C)cc(C)c2[nH]c1=O [RU-0424558] | 399 | 4.15 | –
41 | C[C@@H]1CN(Cc2ccc(F)cc2)[C@@H](C)CN1C(=O)c1cc2c(C(=O)C(=O)N(C)C)cn(C)c2cc1Cl [SCI0469, reference compound] | – | – | effect of inhibitor on DIPQUO-driven ALP expression (staining) ([1]; C2C12, co-treatment with DIPQUO): attenuated ALP expression in DIPQUO-treated cells
